Reference: paper PMC10148601 (Analytica Chimica Acta, 2023)
Entries after “also recorded” stand apart in the source; their conditions may differ. Bridge positions count the residues as written; N and C are the ends. Ends that are not written are not given here.

Tests used:
SARS-CoV-2 NP [1] = target: T1, SARS-CoV-2 NP (Severe acute respiratory syndrome coronavirus 2, UniProt P0DTC9)
SARS-CoV-2 NP [2] = target: T1, SARS-CoV-2 NP; remark: listed apart in the source
[3] = tested on: SARS-CoV-2 NP versus SARS-CoV NP, MERS-CoV NP, HCoV-OC43 NP, SARS-CoV-2 S1, S-RBD, MERS-CoV S1, VEGF165, HSA, AFP, CEA, BSA; format: binding; details: n = 3
SARS-CoV-2 NP [4] = target: T1, SARS-CoV-2 NP; remark: listed apart in the source

Sequence	Frequency among sequenced phage clones (SARS-CoV-2 NP [1])	binding to SARS-CoV-2 NP (positive clone) (SARS-CoV-2 NP [2])	relative affinity for NP (SARS-CoV-2 NP [2])	specificity of binding [3]	binding specificity and affinity in words (SARS-CoV-2 NP [4])
ACGTKPTKFC (disulfide 2-10 (inferred)) [N1]	6/26	have the ability to bind to SARS-CoV-2 NP with a significant difference compared to the control (P < 0.001)	may have higher affinity for NP than the other clones	specifically recognizes SARS-CoV-2 NP; also recorded: binds specifically to SARS-CoV-2 NP; also recorded: has the best specificity	–
ACGTKPTKFCGGGGGS (disulfide 2-10 (inferred)) [peptide probe N1]	–	–	–	–	binds to SARS-CoV-2 NP with good specificity and high affinity
ACLKTYWYNC (disulfide 2-10 (inferred)) [N5]	2/26	have the ability to bind to SARS-CoV-2 NP with a significant difference compared to the control (P < 0.001)	may have higher affinity for NP than the other clones	can bind to either MERS-CoV NP, SARS-CoV NP, or HCoV-OC43 NP; also recorded: limited selectivity	–
ACTPRSANYC (disulfide 2-10 (inferred)) [N4]	3/26	–	–	can bind to either MERS-CoV NP, SARS-CoV NP, or HCoV-OC43 NP; also recorded: limited selectivity	–
